Reference: patent US9801371B2, “Self-assembling polymer particle release system” (priority 2010, dated 2017)
Like-named read-outs stand apart in the source and are kept apart here.

Assays:
[1] = cited from earlier work
[2] = cited from earlier work; remark: listed apart in the source
[3] = cited from earlier work; remark: listed apart in the source
[4] = Filter paper test: ten 10-ml water washings, UV analysis of AI washed through; type: physicochemical
Source text: All of the polymers in this set of experiments were combined with the AI at a 70% AI by weight to 30% polymer by weight concentrations. […] The filter paper samples were applied to a slightly wet Buchner funnel to set the paper evenly and then ten 10-ml aliquots of de-ionized (DI) water were suctioned through the filter paper. Ultraviolet light (UV) analysis for each of the 10-ml fractions was used to determine the absorption of the AI (264 nm) washed through the filter paper and recorded as absorption versus each individual 10-ml wash.
The control for these systems was evaluated by placing methylene chloride solutions of the AI alone or the polymer alone onto the filter paper, drying overnight, and washing with ten 10-ml aliquots of DI water.
The AI was dry ground (mortar and pestle) with urea-formaldehyde flower foam as the cage material [commercial product (Foliage Fresh)] where the ratio of AI to flower foam was 70%/30% by weight. This mixture then was tumbled-coated with an organic solvent solution of a hydrophobic polymer (paraffin wax/hexane; polystyrene/toluene; silicone oil/toluene) in a round bottom flask. […] Small amounts (0.07 g) of the powder were placed on the filter paper and subsequently washed with ten 10-ml aliquots of DI water and analyzed in a similar manner as previously described.
Liquid samples of the AI-polymer combinations and AI control samples were applied to filter paper (Whatman #2) and dried for 24 hours at room temperature. The filter paper containing the AI-polymer combination or the AI control samples were placed in a Buchner funnel under water aspiration vacuum conditions, while ten 10-ml aliquots of water were applied to the top of the filter paper containing the AI-polymer or AI control material, which was then sucked through the filter paper and collected in the receiving flask that holds the funnel-vacuum attachment.
After each 10-ml aliquot of water was suctioned through the filter paper containing the sample, the suctioned solution then was removed and analyzed with a UV spectrometer for any AI that went through the water washing process. The ten 10-ml sequential washings were a simulation of how an AI applied to soil would remain on the soil and migrate through the soil under a rain environmental exposure condition.
Dry 100% solid samples were placed on the filter paper directly and subsequently washed with ten 10-ml aliquots in a similar manner as the liquid samples that were dried after placement on the filter paper.
Various concentrations of the AI's were dissolved in water or water and a co-solvent and analyzed at 254 nm or other UV/visible regions of the spectrum in order to establish a standard calibration curve of absorbance versus AI concentration.

[5] = Soil column test: topsoil column washed with ten 10-ml aliquots of water; type: physicochemical
Method: The soil column was prepared by cutting off the tip of a 15 ml VWR brand CAT, No. 20171-036 polypropylene centrifuge tube leaving approximately a ⅛-inch opening, which was filled with cotton to prevent the soil from pouring out the bottom. The cotton block was 0.5-inch thick, which held unpacked 3 inches of Nature's topsoil from the Michigan Peat Co., (Oakland Nursery). The topsoil was sieved ten times through a #7 metal screen sieve to remove large debris before filling the tubes.
A 50-μl sample of the mixture was applied to the filter paper and dried while a 200-μl sample was applied to the top of the soil columns and dried before washing with ten 10-ml aliquots of water.

[6] = system: sugar beet leaves; details: amorphous wax surface; cited from earlier work
[7] = system: kohlrabi leaves; details: fine crystalline wax surface; cited from earlier work
[8] = Table 26, USDA Pesticide Properties Database

In the case of `CN(C)C(=O)Nc1ccccc1` [Fenuron], the KOC ([1]; Tables 21-25) is given as 42, the “Water Solubility” value [2] is given as 3850 µg/mL and the “Log P” value [3] is given as 0.98.
For `c1ccc2[nH]c(-c3cscn3)nc2c1` [Thiabendazole], the KOC ([1]; Tables 21-25) is listed as 2500, the “Water Solubility” value [2] is listed as 30 µg/mL and the “Log P” value [3] is listed as 2.39.
In the case of `CC(C)N.O=C(O)COc1ccc(Cl)cc1Cl` [2,4-D Amine Salt], the “number of 10-ml water washes to pass through / be depleted from the filter paper” value [4] is reported as 1-2 washes, the “controlled-release properties (in words)” value ([4]; filter paper, 10-ml aliquots of water) is reported as “no control release capabilities” and the “% released” value ([4]; filter paper, 10-ml water washing 1) is reported as 94%. The “% released” value ([4]; filter paper, 10-ml water washing 1, listed as 2,4-D Salt) was 86%, the “% released” value ([4]; filter paper, 10-ml water washing 2) was 6% and the “% released” value ([4]; filter paper, 10-ml water washing 2, listed as 2,4-D Salt) was 14%. The “% released” value ([4]; filter paper, 10-ml water washing 3) was 0%, the “% released” value ([4]; filter paper, 10-ml water washing 4) was 0% and the “% released” value ([4]; filter paper, 10-ml water washing 5) was 0%. The “% released” value ([4]; filter paper, 10-ml water washing 6) was 0%, the “% released” value ([4]; filter paper, 10-ml water washing 7) was 0% and the “% released” value ([4]; filter paper, 10-ml water washing 8) was 0%. For the same compound, the “% released” value ([4]; filter paper, 10-ml water washing 9) was 0%, the “% released” value ([4]; filter paper, 10-ml water washing 10, * = not all released after 10 washings) was 0% and the “R (rating factor, number of washings to deplete the AI)” value ([4]; filter paper, ten 10-ml water washings) was 2. For the same compound, the “% released” value ([5]; 10-ml water washing 1) was 32%, the “% released” value ([5]; 10-ml water washing 2) was 26% and the “% released” value ([5]; 10-ml water washing 3) was 20%. The “% released” value ([5]; 10-ml water washing 4) was 13%, the “% released” value ([5]; 10-ml water washing 5) was 9% and the “% released” value ([5]; 10-ml water washing 6) was 0%. The “% released” value ([5]; 10-ml water washing 7) was 0%, the “% released” value ([5]; 10-ml water washing 8) was 0% and the “% released” value ([5]; 10-ml water washing 9) was 0%. For the same compound, the “% released” value ([5]; 10-ml water washing 10) was 0% and the “R (rating factor, number of washings to deplete the AI)” value ([5]; ten 10-ml water washings) was 5.
In the case of `COc1c(Cl)ccc(Cl)c1C(=O)O` [Dicamba], the KOC [1, 8] is given as 2 mg/g, the KOC ([1]; Tables 21-25) is given as 12 and the “Water Solubility” value [2] is given as 250000 µg/mL. For the same compound, the “Log P” value [3] was −1.88.
For `CON(C)C(=O)Nc1ccc(Cl)c(Cl)c1` [Linuron], the KOC [1, 8] is given as 400 mg/g, the KOC ([1]; Tables 21-25) is given as 620 and the “Water Solubility” value [2] is given as 63.8 µg/mL.
In the case of `O=C(O)CNCP(=O)(O)O` [Glyphosate], the “capability to penetrate leaf surfaces” value [6] is given as “very little capability to penetrate leaf surfaces” and the “capability to penetrate leaf surfaces” value [7] is given as “very little capability to penetrate leaf surfaces”.
In the case of `CCCCN(C)C(=O)Nc1ccc(Cl)c(Cl)c1` [Neburon], the KOC ([1]; Tables 21-25) is given as 2500 and the “Log P” value [3] is given as 3.8.
